“Also recorded” adds a separate entry of the source.

Usually LD50 stands for the dose at which mortality reaches 50%. Lower therefore signals a more toxic substance. As usually defined, the inhibition is how much of the control response was suppressed.

The test system of one series is TxA2 synthetase. The experiment in a line: serum TxB2 concentration in rats after single oral dose (activity on TxA2 synthetase in vivo). Particulars: 2 hours. Set-up: species or system rat. On the procedure: (§1) The activity on TxA2 and PGI2 synthetase has been evaluated in vivo. For example, rats were treated with a single oral dose of compound and killed 2 hours later. TxB2 and 6-keto-PGF1α concentrations, the stable metabolites of TxA2 and PGI2 respectively, were determined on serum and plasma respectively.

The subject of a further series is PGI2 synthetase. The experiment in a line: plasma 6-keto-PGF1α concentration in rats after single oral dose (activity on PGI2 synthetase in vivo). Set-up: species or system rat. Particulars: 2 hours. The protocol: as §1
Another series concerns male SHR rats. Briefly: development of hypertension in SHR rats, mean systemic pressure after seven weeks oral treatment. It counts as in vivo, rat (SHR). On the procedure:
For example, one of the compound of this invention, i.e. compound FCE 22178, was given orally to nine male SHR rats for seven weeks at the dosage of 9 mg/kg.
The mean systemic pressure was monitored on an eight channels Beckman polygraph via a Statham pressure transducer, connected to a PE 60 catheter, inserted, 24 hours before monitored, into the left carotid artery.

The test system of series [1] is arachidonic acid (1.4 mg/kg) induced mortality in rabbits. Briefly: arachidonic acid induced mortality in rabbits. It counts as in vivo, rabbit (New Zealand White). The protocol: (§2) The platelet antiaggregatory activity of the compounds of the invention was evaluated in vitro and in vivo, for example, according to the modified methods of Born [Born G. V. R., Nature 194, 927 (1962)] and Silver [Silver M. J., Science 183, 1085 (1974)].
The compound FCE 22178 was also suspended in Methocel® and administered orally by gavage to rabbits (New Zealand White) at 2 mg/kg one hour before the injection of 1.4 mg/kg of arachidonic acid.

Series [2] can be described thus: orientative acute toxicity, single oral administration, mice. Particulars: in vivo, mouse, same procedure. The protocol: The toxicity of the compounds of the invention is negligible, therefore they can be safely used in therapy. Nine hours food deprived mice and rats were treated orally with single administration of increasing doses, then housed and normally fed. The orientative acute toxicity (LD50) was assessed on the seventh day after the treatment and resulted higher than 3000 mg/kg.

In series [3] the test system is thromboxane A2 (TXA2) synthetase. The note with it: literature / prior filings; cited from earlier work.
Series [4] has as its system collagen-induced platelet aggregation. Briefly: in vitro inhibition of collagen-induced platelet aggregation in platelet rich plasma. Format: cell-based, guinea pig. Particulars: for inhibition at 12.5 µg/mL: in vitro concentration 12.50 mcg/ml. The protocol: as §2
(§3) The compounds of this invention were found in vitro to have inhibitory activity on platelet aggregation induced by collagen or ADP (adenosine-5'-disphosphate) in platelet rich plasma of guinea pig [Dunkin Hantley Iva: PDH (SPF) Ivanovas GmBH, Germany].

Series [5] concerns ADP-induced platelet aggregation. The experiment in a line: in vitro inhibition of ADP-induced platelet aggregation in platelet rich plasma. It counts as cell-based. Particulars: guinea pig platelet rich plasma. On the procedure: as §2, §3
In series [6] the test system is male rats fed hypercholesterolaemic diet. Briefly: Experiment No. 1: serum lipids in rats fed hypercholesterolaemic diet. Particulars: 4 days. It counts as in vivo, rat (Icem: CER (SPF Caw)). The protocol:
(§4) The introduction of this new substituent in the new bicyclic compounds has therefore unexpectedly strenghtened these activities. The activity of this particular group of compounds of this invention and of the compounds of the above mentioned U.S. Patent and U.K. published Patent Application was evaluated on groups of Icem: CER (SPF Caw) male rats either fed for six days with hypercholesterolaemic diet according to C. E. Day [Schurr P. E., Schultz H. R., Day C. E. (Eds) Atherosclerosis and drug discovery--Plenum Pub. Corp., 217 (1976)] (Experiment No. 1) or fed standard diet [Altromin] (Experiment No. 2). "Altromin" is a trade mark.
(§5) The compounds were suspended in "Methocel" (methyl cellulose, a 0.5% suspension in water) and administered by stomach tube for 4 days.
(§6) Groups of animals were treated with the suspending agent only (control groups).
(§7) The total serum cholesterol was determined with the method of Trinder P. J. [J.Clin.Pathol., 22, 246 (1969)].
The total serum HDL cholesterol was determined according to Demacker P. N. M. [Clin. Chem., 23, 1238, (1977)].
Statistical analysis in experiment No. 1 was performed by the Student's t test for independent samples or by the Cochran's test when the variances were not homogeneous at the F ratio test [Bliss C. I.--Statistics in Biology, Vol. 1, page 213--Mc Graw Hill Book Company, New York, 1967; Cochran W. G., Cox G. M.--Experimental designs--J. Wiley & Sons Inc., New York, II Ed. (1968) page 100].

Series [7] has as its system male rats fed standard diet. Briefly: Experiment No. 2: serum lipids in rats fed standard Altromin diet. Format: in vivo, rat (Icem: CER (SPF Caw)). Particulars: 4 days. On the procedure: as §4, §5, §6, §7
The serum triglycerides were determined with the method of Mendex J. [J. Clin. Chem., 21, 768, (1975)].
W.--J. Amer. Stat. Ass., 50, 1096 (1955)].

On to `O=C(O)c1ccc2c(c1)C=C(n1ccnc1)CC2` [FCE 22178, 1,2-dihydro-3-(1-imidazolyl)-6-carboxy-naphthalene], for which the figures for the “reduction of serum TxB2 concentration” value in the series on TxA2 synthetase (100 mg/kg) and in the series with TxA2 synthetase (dosed up to 9 mg/kg) were 90% and “up to 70%”, respectively. In addition, the “change of plasma 6-keto-PGF1α concentration” value in the series with PGI2 synthetase (100 mg/kg) is recorded as “doubled”. Also, the “increase of plasma 6-keto-PGF1α concentration” value in the series on PGI2 synthetase (dosed up to 9 mg/kg) is on record as “up to 30%”. Also, the development of hypertension entry in the series on male SHR rats (9 mg/kg orally for seven weeks) is reported as “decreased the development of hypertension”. The “Mean systemic pressure, Treated” value in the series with male SHR rats (9 mg/kg orally, 7 weeks, controls 177 ± 5.06) is 154.8 ± 14.1 mm Hg ± E.S. The “effect on arachidonic acid induced mortality” value in series [1] (2 mg/kg orally) is listed as “greatly decreases”. The Mortality in series [1] (2 mg/kg/os, one hour before arachidonic acid 1.4 mg/kg, Methocel control 9/9) is reported as 3/9.
`C1=C(Cn2ccnc2)CCc2ccccc21` [1,2-dihydro-3-(1-imidazolylmethyl)-naphthalene] gave a 50% lethal dose (LD50) at 168 h in series [2] of under 200 mg/kg.
In the case of `c1c[nH]cn1` [imidazole], the “inhibition of TxA2 synthetase” value in [3] is “able to inhibit; also recorded: only a very weak TXA2 inhibiting effect”.
For `COc1ccc2c(c1)C=C(n1ccnc1)CC2` [FCE 22466, 1,2-dihydro-3-(1-imidazolyl)-6-methoxy-naphthalene], in series [4] (25 mcg/ml), the “inhibition of collagen-induced platelet aggregation” value is recorded as “totally inhibits collagen-induced platelet aggregation in three out of four samples”. In series [4] (Cavia porcellus, Platelet, in vitro concentration 12.33 mcg/ml), this compound returned an inhibition at 12.33 µg/mL of 50%. In [4] (in vitro, guinea pig platelet rich plasma), the “activity on collagen-induced platelet aggregation” value is listed as “active”. Besides, the “activity on ADP-induced platelet aggregation” value in series [5] is reported as “active”.
On to `CC(C)(Oc1ccc2c(c1)C=C(n1ccnc1)CC2)C(=O)O` [FCE 22473, 1,2-dihydro-3-(1-imidazolyl)-6-(2-carboxy-isopropoxy)-naphthalene], for which, in series [6] (27 mg/kg/os), the “Serum HDL cholesterol, % variation vs. controls” value is on record as “+77 % variation vs. controls” and the “Total serum cholesterol, % variation vs. controls” value was -73 % variation vs. controls. Moreover, in series [7] (16.67 mg/kg/os), the “Serum triglycerides, % variation vs. controls” value is reported as -57 % variation vs. controls and the “Total serum cholesterol, % variation vs. controls” value was -32 % variation vs. controls.
As to `COc1ccc2c(c1)C(=O)C(n1ccnc1)CC2` (stereo not shown) [FCE 21848, 2-(1-imidazolyl)-3,4-dihydro-7-methoxy-1(2H)-naphthalenone, reference compound], in series [4] (Cavia porcellus, Platelet), the inhibition at 12.5 µg/mL was 0%. In addition, in [7] (50.00 mg/kg/os), the “Serum triglycerides, % variation vs. controls” value is “inactive” and the “Total serum cholesterol, % variation vs. controls” value is “inactive”.
In [2], `COc1ccc2c(c1)CCC(Cn1ccnc1)=C2` [1,2-dihydro-3-(1-imidazolylmethyl)-7-methoxy-naphthalene] displayed an LD50 at 168 h of under 200 mg/kg.
In series [4] (Cavia porcellus, Platelet), `O=C1c2cc(Cl)ccc2OCC1n1ccnc1` (stereo not shown) [FCE 20204, 3-(1-imidazolyl)-2,3-dihydro-6-chloro-4H-1-benzopyran-4-one, reference compound] displayed an inhibition at 12.5 µg/mL of 0%. In addition, in [6] (25 mg/kg/os), the “Serum HDL cholesterol, % variation vs. controls” value is “+49 % variation vs. controls” and the “Total serum cholesterol, % variation vs. controls” value is listed as “+7 % variation vs. controls”.

The record behind these values is patent US4510149A, “N-Imidazolyl derivatives containing naphthalene or indene nucleus” (Farmitalia Carlo Erba S.p.A., priority 1982, dated 1985).
